Experimental data from US5395836A, “8-tricycloalkyl xanthine derivatives” (Kyowa Hakko Kogyo Co., Ltd., priority 1993, dated 1995).

Columns and labels:
adenosine A1 receptor = biological target: T1, adenosine A1 receptor (Rattus norvegicus, UniProt P25099); experiment: Adenosine Receptor Antagonizing Activity (Adenosine A1 Receptor Binding Test); details: rat corpus striatum; 3H-CHA 1.1 nM; 25° C., 90 min; Cheng-Prusoff
T1 construct: from tissue; host or cells: rat corpus striatum, washed membrane suspension
T1 sequence (P25099 1-326): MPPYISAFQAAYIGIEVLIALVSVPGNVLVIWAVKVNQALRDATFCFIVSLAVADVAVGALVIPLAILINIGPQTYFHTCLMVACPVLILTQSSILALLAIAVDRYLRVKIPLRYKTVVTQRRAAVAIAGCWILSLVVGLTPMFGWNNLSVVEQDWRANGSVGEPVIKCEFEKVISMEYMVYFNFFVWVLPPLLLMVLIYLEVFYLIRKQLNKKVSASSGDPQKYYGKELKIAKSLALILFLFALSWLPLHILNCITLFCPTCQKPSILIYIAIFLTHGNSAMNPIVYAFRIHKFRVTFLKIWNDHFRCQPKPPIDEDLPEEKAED
Procedure: The test was conducted according to the method of Bruns et al. [Proc. Natl. Acad. Sci. U.S.A., 77., 5547 (1980)] with slight modification.
Corpus striatum of a rat was suspended in ice-cooled 50 mM Tris hydroxymethyl aminomethane hydrochloride (Tris HCl) buffer (pH 7.7) by using Polytron homogenizer (manufactured by Kinematicas Co.). The suspension was centrifuged (50,000×g, 10 minutes), and the precipitate was suspended again in the same amount of 50 mM Tris HCl buffer. The suspension was centrifuged under the same conditions, and the final precipitate was suspended once again in 50 mM Tris HCl buffer to give a tissue concentration of 100 mg (wet weight)/ml. The tissue suspension was allowed to stand in the presence of 0.02 unit/mg tissue of adenosine deaminase (manufacture by Sigma Co.) at 37° C. for 30 minutes. The tissue suspension was centrifuged (50,000×g, 10 minutes) and to the obtained precipitates was added 50 mM Tris HCl buffer to give a tissue concentration of 10 mg (wet weight)/ml.
To 1 ml of the tissue suspension thus prepared, were added 50 μl of cyclohexyladenosine labeled with tritium (^3 H-CHA: 27 Ci/mmol, manufactured by New England Nuclear) (final concentration: 1.1 nM), and 50 μl of a test compound. The resulting mixture was allowed to stand at 25° C. for 90 minutes and then rapidly filtered by suction through a glass fiber filter (GF/C, manufactured by Whatman Co.). The filter was immediately washed three times with 5 ml each of ice-cooled 50 mM Tris HCl buffer, and transferred to a vial, and scintillator (EX-H by Wako Pure Chemical Industries, Ltd.) was added thereto. The radioactivity on the filter was determined with a liquid scintillation counter (manufactured by Packard Instrument Co.).
The inhibition rate (Ki value) of the test compound against the binding of A1 receptors (^3 H-CHA binding) was calculated by the equation of Cheng-Prusoff. [formula]

Diuretic Effect = format: in vivo, rat (Wistar); details: po, 4 hours; for Increase in amount of K+ excreted Δ(%) / Increase in amount of Na+ excreted Δ(%) / Increase in amount of urine Δ(%): control 0; for Na+/K+: control 1.00
Procedure: The experiment was performed by using Wistar rats (male; 150 to 300 g). The rats were starved for 18 hours prior to the administration of a test compound (n=4 to 5). After test compounds were dissolved in 0.4% methanol, 1% dimethylsulfoxide and 0.01N sodium hydroxide/physiological saline, and administered intravenously, the physiological saline (25 ml/kg) was orally administered. Alternatively, test compounds dissolved in the physiological saline (25 ml/kg) was orally administered to the rats. Urine was collected from the rats during 4 hours after the oral administration, and urine volume was measured by a graduated measuring cylinder, and the electrolytes in the urine (Na^+ and K^+) were determined by flame photometer (775 A manufactured by Hitachi, Ltd.).

[1] = Renal-protecting Effect (Glycerol-Induced Renal Failure Model); format: in vivo, rat (Wistar); details: for Amount of creatinine in blood serum / Amount of uria nitrogen in blood serum: ip, 24 h after glycerol
Procedure: A renal failure is a state where the renal function is lowered and the homeostasis of a body fluid can be no longer maintained. It is known that an acute renal failure characteristic of uriniferous tubule disorder is caused by subcutaneous or intramuscular injection of glycerol to rats [Can. J. Physiol.
Male Wistar rats were kept deprived of water for 18 hours, and served for the test. A test compound was intraperitoneally administered to the rats (dosage: 0.1 ml/100 g). After 30 minutes, the rats were anesthetized with ether and 50% glycerol was subcutaneously administered (dosage: 0.8 ml/100 g) to the rats, pinching the dorsal skin. Twenty four hours after the administration of glycerol, the rats were anesthetized with ether and 5 ml of blood was collected from the abdominal aorta. The collected blood was allowed to stand for 30 minutes or longer and then centrifuged at 3,000 rpm for 10 minutes, and the amounts of the serum creatinine and the serum urine-nitrogen (UN) were determined by auto analyzer (Olympus AU510) [creatinine test (Jaffe method), UN test (enzyme method); both tests were used in Olympus AU500/550 exclusive reagent […].

[2] = 0.01 mg/kg, control 3.90 ± 0.24 (compounds 6, 7), 4.35 ± 0.23 (compound 3)
[3] = 0.01 mg/kg, control 124.9 ± 7.5 (compounds 6, 7), 139.7 ± 10.2 (compound 3)
[4] = 0.03 mg/kg, control 4.55 ± 0.24
[5] = 0.03 mg/kg, control 137.2 ± 5.0

Row | SMILES | Ki (adenosine A1 receptor) [nM] | Increase in amount of K+ excreted Δ(%) (Diuretic Effect; 0.1 mg/kg) | Increase in amount of Na+ excreted Δ(%) (Diuretic Effect; 0.1 mg/kg) | Increase in amount of urine Δ(%) (Diuretic Effect; 0.1 mg/kg) | Na+/K+ (Diuretic Effect; 0.1 mg/kg) | Increase in amount of K+ excreted Δ(%) (Diuretic Effect; 0.01 mg/kg) | Increase in amount of Na+ excreted Δ(%) (Diuretic Effect; 0.01 mg/kg) | Increase in amount of urine Δ(%) (Diuretic Effect; 0.01 mg/kg) | Na+/K+ (Diuretic Effect; 0.01 mg/kg) | Increase in amount of K+ excreted Δ(%) (Diuretic Effect; 1.6 mg/kg) | Increase in amount of Na+ excreted Δ(%) (Diuretic Effect; 1.6 mg/kg) | Increase in amount of urine Δ(%) (Diuretic Effect; 1.6 mg/kg) | Na+/K+ (Diuretic Effect; 1.6 mg/kg) | Amount of creatinine in blood serum [1, 4] [mg/dL] | Amount of uria nitrogen in blood serum [1, 5] [mg/dL] | further results
1 | Cn1c(=O)c2[nH]cnc2n(C)c1=O [aminophylline, reference compound] | – | – | – | – | – | – | – | – | – | – | – | – | – | – | – | effect of suppressing the increase ([1]; i.p., 10 mg/kg): weak effect of suppressing the increase
2 | CCCn1c(=O)c2[nH]c(C34CC5CC3CC(C4)C5=O)nc2n(CCC)c1=O [Compound 1, 8-(9-Oxo-3-tricyclo[3.3.1.0^3,7]nonyl)-1,3-dipropylxanthine] | 0.37 | – | – | – | – | 37 | 144 | 149 | 1.78 | 36 | 193 | 258 | 2.15 | 2.51 ± 0.41 | 81.4 ± 15.9 | –
3 | NS(=O)(=O)c1cc(C(=O)O)c(NCc2ccco2)cc1Cl [furosemide, reference compound] | – | – | – | – | – | – | – | – | – | – | – | – | – | – | – | effect on serum creatinine ([1]; i.p., 10 mg/kg): tendency to increase the serum creatinine
4 | CCCn1c(=O)c2[nH]c(C34CC5CC(C3)C(=O)C4C5)nc2n(CCC)c1=O (stereo not shown) [Compound 2, 8-(6-Oxo-3-tricyclo[3.3.1.0^3,7]nonyl)-1,3-dipropylxanthine] | 0.59 | 32 | 177 | 211 | 2.10 | – | – | – | – | 8 | 188 | 241 | 2.67 | 2.51 ± 0.24 | 85.0 ± 8.7 | –

The next lines start with results.

Row | Ki (adenosine A1 receptor) [nM] | SMILES | Increase in amount of K+ excreted Δ(%) (Diuretic Effect; 0.1 mg/kg) | Increase in amount of Na+ excreted Δ(%) (Diuretic Effect; 0.1 mg/kg) | Increase in amount of urine Δ(%) (Diuretic Effect; 0.1 mg/kg) | Na+/K+ (Diuretic Effect; 0.1 mg/kg) | Increase in amount of K+ excreted Δ(%) (Diuretic Effect; 0.01 mg/kg) | Increase in amount of Na+ excreted Δ(%) (Diuretic Effect; 0.01 mg/kg) | Increase in amount of urine Δ(%) (Diuretic Effect; 0.01 mg/kg) | Na+/K+ (Diuretic Effect; 0.01 mg/kg) | Increase in amount of K+ excreted Δ(%) (Diuretic Effect; 1.6 mg/kg) | Increase in amount of Na+ excreted Δ(%) (Diuretic Effect; 1.6 mg/kg) | Increase in amount of urine Δ(%) (Diuretic Effect; 1.6 mg/kg) | Na+/K+ (Diuretic Effect; 1.6 mg/kg) | Amount of creatinine in blood serum [1, 4] [mg/dL] | Amount of uria nitrogen in blood serum [1, 5] [mg/dL] | further results
5 | 5.1 | CCCn1c(=O)c2[nH]c(C34CC5CC(CC(O)(C5)C3)C4)nc2n(CCC)c1=O [Compound 8, 8-(3-Hydroxy-1-tricyclo[3.3.1.1^3,7]decyl)-1,3-dipropylxanthine] | – | – | – | – | – | – | – | – | – | – | – | – | – | – | –
6 | 0.96 | CCCn1c(=O)c2[nH]c(C34CC5CC(CC3C5)C4)nc2n(CCCO)c1=O [Compound 6, 3-(3-Hydroxypropyl)-8-(3-tricyclo[3.3.1.0^3,7]nonyl)-1-propylxanthine] | 24 | 276 | 396 | 3.03 | – | – | – | – | – | – | – | – | – | – | Increase in amount of K+ excreted Δ(%) (Diuretic Effect; 0.025 mg/kg): 5.1%; Increase in amount of Na+ excreted Δ(%) (Diuretic Effect; 0.025 mg/kg): 111%; Increase in amount of urine Δ(%) (Diuretic Effect; 0.025 mg/kg): 134%; Na+/K+ (Diuretic Effect; 0.025 mg/kg): 2.00; Amount of creatinine in blood serum [1, 2]: 2.23 ± 0.15 mg/dL; Amount of uria nitrogen in blood serum [1, 3]: 65.4 ± 5.6 mg/dL
7 | 0.24 | CCCn1c(=O)c2[nH]c(C34CC5CC(C3)C(O)C4C5)nc2n(CCC)c1=O (stereo not drawn) [Compound 5, 8-(Trans-6-hydroxy-3-tricyclo[3.3.1.0^3,7]nonyl)-1,3-dipropylxanthine] | – | – | – | – | – | – | – | – | – | – | – | – | – | – | Amount of creatinine in blood serum ([1]; 0.1 mg/kg, control 4.55 ± 0.24 (compound 5), 4.35 ± 0.23 (compound 3)): 2.34 ± 0.24 mg/dL; Amount of uria nitrogen in blood serum ([1]; 0.1 mg/kg, control 137.2 ± 5.0 (compound 5), 139.7 ± 10.2 (compound 3)): 74.4 ± 7.7 mg/dL
8 | 6.1 | CCCn1c(=O)c2[nH]c(C34CC5CC(CC3C5)C4)nc2n(CC(C)O)c1=O (stereo not shown) [Compound 7, 3-(2-hydroxypropyl) -8-(3tricyclo[3.3.1.0^3,7]nonyl)-1-propylxanthine] | 23 | 138 | 200 | 1.93 | 33 | 97 | 140 | 1.48 | – | – | – | – | – | – | Amount of creatinine in blood serum [1, 2]: 2.28 ± 0.22 mg/dL; Amount of uria nitrogen in blood serum [1, 3]: 70.0 ± 9.8 mg/dL
9 | 0.31 | CCCn1c(=O)c2[nH]c(C34C[C@H]5CC3C[C@@H](C4)[C@H]5O)nc2n(CCC)c1=O (relative stereo) [Compound 4, 8-(cis-9-hydroxy-3tricyclo[3.3.1.0^3,7]nonyl)-1,3-dipropylxanthine] | – | – | – | – | 43 | 167 | 200 | 1.86 | 35 | 180 | 232 | 2.07 | 2.32 ± 0.48 | 75.6 ± 13.9 | –
